Source: ChEMBL document CHEMBL1126002, “Interphenylene 7-oxabicyclo[2.2.1]heptanes. SQ33,961: a new potent, long-acting thromboxane antagonist” (Bioorg Med Chem Lett, 1991)

How the values were obtained:
[1] = organism: Homo sapiens; assay: Compound was evaluated for the ability to inhibit […] induced platelet aggregation (U-IPA) in human platelet rich plasma.; format: functional; details: read-out: I50
[2] = organism: Homo sapiens; assay: Compound was evaluated for the ability to inhibit arachidonic acid induced platelet aggregation (AAIPA) in human platelet rich plasma; format: functional; details: read-out: I50
[3] = tested on: Mus musculus; assay: Compound (0.2 mpk/po) was evaluated for the ability to protect from U-46,619 induced lethality in mice as a function of time one half of the population survives from time of dosage; format: functional
[4] = target: T1, Thromboxane A2 receptor (Homo sapiens, UniProt P21731); assay: Compound was evaluated for the receptor binding studies with Thromboxane A2 receptor using [3H]-SQ 29548 as radioligand in human platelet membranes.; format: cell membranes
T1 sequence (P21731 whole entry): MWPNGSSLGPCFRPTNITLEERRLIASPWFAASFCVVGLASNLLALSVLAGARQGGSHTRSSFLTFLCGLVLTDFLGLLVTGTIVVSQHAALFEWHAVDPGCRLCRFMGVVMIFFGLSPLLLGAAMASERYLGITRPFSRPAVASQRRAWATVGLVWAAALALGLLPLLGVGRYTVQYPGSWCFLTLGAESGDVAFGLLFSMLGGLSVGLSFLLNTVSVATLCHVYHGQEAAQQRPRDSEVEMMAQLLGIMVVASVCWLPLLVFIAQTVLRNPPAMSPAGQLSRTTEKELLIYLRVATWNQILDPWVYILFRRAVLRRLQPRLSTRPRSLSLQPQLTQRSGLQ

| IC50 [1] | IC50 [2] | Structure (SMILES) | T50 [3] | Kd [4] |
| --- | --- | --- | --- | --- |
| 13 nM | 4 nM | O=C(O)CCc1ccccc1CC1C2CCC(O2)C1c1nc(C(=O)NCCCCc2ccc(Cl)cc2)co1 (stereo unspecified) |  |  |
| 13 nM | 2 nM | CCCCCCCNC(=O)c1coc(C2C3CCC(O3)C2Cc2ccccc2CCC(=O)O)n1 (stereo unspecified) |  |  |
| 5 nM | 3 nM | CC(C)(C)CCCCCCNC(=O)c1coc(C2C3CCC(O3)C2Cc2ccccc2CCC(=O)O)n1 (stereo unspecified) |  |  |
| 81 nM | 20 nM | CNC(=O)c1coc(C2C3CCC(O3)C2Cc2ccccc2CCC(=O)O)n1 (stereo unspecified) |  |  |
| 25 nM | 3 nM | O=C(O)CCc1ccccc1CC1C2CCC(O2)C1c1nc(C(=O)NC2CCCCC2)co1 (stereo unspecified) |  |  |
| 6 nM | 1 nM | CCCCCCCCCCNC(=O)c1coc(C2C3CCC(O3)C2Cc2ccccc2CCC(=O)O)n1 (stereo unspecified) |  |  |

| Structure (SMILES) | IC50 [1] | IC50 [2] | T50 [3] | Kd [4] |
| --- | --- | --- | --- | --- |
| O=C(O)CCc1ccccc1CC1C2CCC(O2)C1c1nc(C(=O)NCCCCC2CCCCC2)co1 (stereo unspecified) | 6 nM | 2 nM | 23 h | 0.1 nM |
